Measured values published in the supplement of paper PMC13380429.

Legend:
Details in all cases: 72 h
Caco-2 [1] = assay: cell viability relative to DMSO; higher = less toxic
Calu-3 [2] = assay: as above
HepG2 [3] = assay: as above
U2OS [4] = assay: as above
Vero E6 [5] = assay: as above
Caco-2 [6] = assay: relative viability EC50 (midpoint between 100% and the lowest measured viability); higher = less toxic
Calu-3 [7] = assay: as above
HepG2 [8] = assay: as above
U2OS [9] = assay: as above
Vero E6 [10] = assay: as above
Caco-2 [11] = assay: drug sensitivity score (DSS) for viability; higher = more toxic; extreme values may be limits of the assay
Calu-3 [12] = assay: as above
HepG2 [13] = assay: as above
U2OS [14] = assay: as above
Vero E6 [15] = assay: as above

SMILES | cell viability (Caco-2 [1]; 1 nM) [%] | cell viability (Caco-2 [1]; 10 nM) [%] | cell viability (Caco-2 [1]; 100 nM) [%] | cell viability (Caco-2 [1]; 1000 nM) [%] | cell viability (Caco-2 [1]; 10000 nM) [%] | cell viability (Calu-3 [2]; 1 nM) [%] | cell viability (Calu-3 [2]; 10 nM) [%] | cell viability (Calu-3 [2]; 100 nM) [%] | cell viability (Calu-3 [2]; 1000 nM) [%] | cell viability (Calu-3 [2]; 10000 nM) [%] | cell viability (HepG2 [3]; 1 nM) [%] | cell viability (HepG2 [3]; 10 nM) [%] | cell viability (HepG2 [3]; 100 nM) [%] | cell viability (HepG2 [3]; 1000 nM) [%] | cell viability (HepG2 [3]; 10000 nM) [%] | cell viability (U2OS [4]; 1 nM) [%] | cell viability (U2OS [4]; 10 nM) [%] | cell viability (U2OS [4]; 100 nM) [%] | cell viability (U2OS [4]; 1000 nM) [%] | cell viability (U2OS [4]; 10000 nM) [%] | cell viability (Vero E6 [5]; 1 nM) [%] | cell viability (Vero E6 [5]; 10 nM) [%] | cell viability (Vero E6 [5]; 100 nM) [%] | cell viability (Vero E6 [5]; 1000 nM) [%] | cell viability (Vero E6 [5]; 10000 nM) [%] | relative viability EC50 (Caco-2 [6]) [µM] | relative viability EC50 (Calu-3 [7]) [µM] | relative viability EC50 (HepG2 [8]) [µM] | relative viability EC50 (U2OS [9]) [µM] | relative viability EC50 (Vero E6 [10]) [µM] | drug sensitivity score (Caco-2 [11]) | drug sensitivity score (Calu-3 [12]) | drug sensitivity score (HepG2 [13]) | drug sensitivity score (U2OS [14]) | drug sensitivity score (Vero E6 [15])
CC1(COc2ccc(CC3SC(=O)NC3=O)cc2)CCCCC1 (stereo not given) [ciglitazone] | 98.7 | 99.2 | 99.1 | 92.9 | 95.2 | 104 | 98.4 | 92.9 | 98 | 102 | 101 | 99.8 | 98.2 | 108 | 105 | 95.3 | 99.8 | 102 | 100 | 100 | 94.6 | 97 | 92.7 | 94.1 | 96.5 | > 10 | > 10 | > 10 | > 10 | > 10 | 0 | 0 | 0 | 0 | 0
COc1cc(/C=C/C(N)=O)cc(OC)c1OC [cintriamide] | 83 | 98.3 | 96 | 97.1 | 99.2 | 106 | 97.4 | 95.6 | 102 | 105 | 97.1 | 99.6 | 100 | 95.1 | 114 | 98.2 | 102 | 101 | 102 | 106 | 96.3 | 97.2 | 95.5 | 90.2 | 104 | > 10 | > 10 | > 10 | > 10 | > 10 | 0 | 0 | 0 | 0 | 0
O=C(O)c1ccc(N2C(=O)/C(=C/c3ccc(-c4ccc([N+](=O)[O-])cc4)o3)C=C2c2ccccc2)cc1 [4E1RCat] | 97.3 | 97.1 | 98.2 | 96.4 | 87.5 | 93.1 | 105 | 95.2 | 87.3 | 100 | 104 | 108 | 91.4 | 102 | 88.7 | 98.4 | 98.1 | 102 | 94.7 | 92.5 | 98.1 | 100 | 99 | 98.7 | 99.3 | > 10 | > 10 | > 10 | > 10 | > 10 | 0.2 | 0 | 0 | 0 | 0
N[C@H](C(=O)O)[C@H](O)c1ccc(O)c(O)c1 [droxidopa] | 95.4 | 102 | 103 | 96.4 | 102 | 98.8 | 98.1 | 99.7 | 87 | 102 | 90.7 | 95.5 | 98.8 | 114 | 104 | 98 | 95.6 | 97.5 | 97.2 | 100 | 95.1 | 102 | 96.8 | 98.5 | 104 | > 10 | > 10 | > 10 | > 10 | > 10 | 0 | 0 | 0 | 0 | 0
